Assay results published in PubChem BioAssay (NCI).
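96-well plates; 48 h exposure; 5 concentrations. Endpoints by linear interpolation between flanking doses. Not reached: highest tested concentration assigned. TGI is the concentration that stops growth completely.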

Tests used:
Assay in all cases: inhibition of tumour cell growth, NCI panel, 48 h
SW-620 colon = test system: SW-620 colon
SK-MEL-28 melanoma = test system: SK-MEL-28 melanoma
CAKI-1 renal = test system: CAKI-1 renal
NCI-H522 lung = test system: NCI-H522 lung
U251 CNS = test system: U251 CNS
NCI-H23 lung = test system: NCI-H23 lung
SF-295 CNS = test system: SF-295 CNS
NCI-H460 lung = test system: NCI-H460 lung
T-47D breast = test system: T-47D breast
LOX IMVI melanoma = test system: LOX IMVI melanoma
SNB-75 CNS = test system: SNB-75 CNS
NCI-H226 lung = test system: NCI-H226 lung
RXF 393 renal = test system: RXF 393 renal
MDA-MB-231 breast = test system: MDA-MB-231 breast
PC-3 prostate = test system: PC-3 prostate
COLO 205 colon = test system: COLO 205 colon
HS 578T breast = test system: HS 578T breast
OVCAR-4 ovarian = test system: OVCAR-4 ovarian
KM12 colon = test system: KM12 colon
UO-31 renal = test system: UO-31 renal

Row | SMILES | TGI (SW-620 colon) [µM] | TGI (SK-MEL-28 melanoma) [µM] | TGI (CAKI-1 renal) [µM] | TGI (NCI-H522 lung) [µM] | TGI (U251 CNS) [µM] | TGI (NCI-H23 lung) [µM] | TGI (SF-295 CNS) [µM] | TGI (NCI-H460 lung) [µM] | TGI (T-47D breast) [µM] | TGI (LOX IMVI melanoma) [µM] | TGI (SNB-75 CNS) [µM] | TGI (NCI-H226 lung) [µM] | TGI (RXF 393 renal) [µM] | TGI (MDA-MB-231 breast) [µM] | TGI (PC-3 prostate) [µM] | TGI (COLO 205 colon) [µM] | TGI (HS 578T breast) [µM] | TGI (OVCAR-4 ovarian) [µM] | TGI (KM12 colon) [µM] | TGI (UO-31 renal) [µM]
1 | N#CC1N(C(=O)c2ccc(F)cc2)c2ccccc2N1C(=O)c1ccc(F)cc1 | > 100 | > 100 | > 100 | > 100 | > 100 | > 100 | > 100 | > 100 | > 100 | > 100 | > 100 | > 100 | > 100 | > 100 | > 100 | 45.6 | > 100 | > 100 | > 100 | > 100
2 | CC(C)OC(=O)c1ccc(CCC2=CC(=O)C(Br)=CC2=O)cc1 | 29.2 | 32.7 | 38.4 | 19.3 | 29.8 | 26.2 | 39.6 | 46.6 | 45 | 30.8 | 32.5 | 71.9 | 31.2 | 31.1 | 31.8 | 24.7 | 38.1 | 23.1 | 26.5 | 27.1
3 | O=C1CCC2=C(CCC2)N1CCc1ccc2c(c1)OCO2 | > 100 | > 100 | > 100 | > 100 | > 100 | > 100 | > 100 | > 100 | > 100 | > 100 | > 100 | > 100 | 52.5 | > 100 | > 100 | > 100 | > 100 | > 100 | > 100 | > 100
4 | O=C1c2ccccc2C(=O)N1C(=S)c1ccccc1 | > 100 | > 100 | > 100 | > 100 | > 100 | > 100 | > 100 | > 100 | > 100 | > 100 | > 100 | > 100 | > 100 | > 100 | > 100 | > 100 | > 100 | > 100 | > 100 | > 100
5 | CCCCCC(/C=C/[C@@H]1CC(=O)C[C@H]1O[Si](C)(C)C(C)(C)C)OCOCCOC (stereo not given in full) | > 28.1 | 10.5 | 7.87 | 4.01 | 8.08 | 12.9 | 25.5 | 40.2 | 44 | 7 | 11.5 | 18.8 | 5.45 | 14.7 | 14.1 | 17.8 | 8.04 | 26.3 | 8.96 | 6.44
6 | CCOC(=O)/C=C(/C(=O)OCC)n1c(=O)c(C)cn(C2CC(N=[N+]=[N-])C(CO)O2)c1=O (stereo not given) | 34.1 | 84.6 | 83.9 | > 100 | 37.4 | > 100 | > 100 | > 100 | > 100 | > 100 | > 100 | > 100 | 57.2 | 46 | 32.8 | 30.1 | > 100 | > 100 | > 100 | > 100
7 | c1ccc(C(CCN2CCCC2)c2ccccn2)cc1 (stereo not given) | > 100 | > 100 | > 100 | > 100 | > 100 | > 100 | > 100 | > 100 | > 100 | > 100 | > 100 | > 100 | > 100 | > 100 | > 100 | > 100 | > 100 | > 100 | > 100 | > 100
8 | O=[N+]([O-])c1cccc2nc3ccccc3c(NCCC[N+]3([O-])CCCCC3)c12 | > 34.8 | 5.11 | > 100 | 0.345 | 1.24 | 0.622 | 12.6 | 1.18 | 4.9 | 2.4 | 1.4 | 1.54 | 2 | 1.16 | 0.649 | 0.317 | 4.02 | 1.15 | 2.07 | > 58.6
9 | COc1ccc2[nH]c(C(=O)N3CC(CCl)c4ccc([N+](=O)[O-])cc43)cc2c1 (stereo not given) | > 100 | > 100 | > 100 | > 100 | > 100 | > 100 | > 100 | > 100 | > 100 | > 100 | > 88.7 | > 100 | > 100 | > 100 | > 100 | > 100 | > 100 | > 100 | > 100 | > 100
10 | [N-]=[N+]=C1CNC(=O)NC1=O | > 100 | > 100 | > 100 | > 100 | > 100 | > 100 | > 100 | > 100 | > 100 | > 100 | > 100 | > 100 | > 100 | > 100 | > 100 | > 100 | > 100 | > 100 | > 100 | > 100
11 | COCC(=O)[C@]1(O)Cc2c(O)c3c(c(O)c2[C@@H](OC2CC(N)C(O)C(C)O2)C1)C(=O)c1c(OC)cccc1C3=O (stereo not given in full) | 3.01 | 0.398 | 0.422 | 0.124 | 1.27 | 0.256 | 1.34 | 0.583 | 0.737 | 0.148 | 0.161 | 0.665 | 0.267 | 2.97 | 1.48 | 1.63 | 0.0892 | 1.56 | 0.357 | 0.231
12 | Cc1ccccc1NC(=S)N/N=C(/c1ccccc1)c1ccccn1 | 15.4 | 16.8 | 10.5 | 3.4 | 12.1 | 21.5 | 8.7 | 9.05 | 12.4 | 20.4 | 17.4 | 1.66 | 12.3 | 12.7 | 13.6 | 19.1 | 31.2 | 20.8 | 14 | 4.25
13 | CCN(CC)C(=S)SNCCc1ccc(S(N)(=O)=O)cc1 | 36.7 | 25.8 | 29 | 4.63 | 31.8 | 38.7 | 47.5 | > 100 | 45.1 | 33 | 27 | > 84.7 | 22.1 | 30.4 | 26.9 | > 100 | 53.1 | 35.6 | 37.6 | 27
14 | CN(C)CCCNC(=O)c1cc(NC(=O)c2cc(NC(=O)c3cc(NC(=O)CCCn4ccc(CO)c4CO)cn3C)cn2C)cn1C | > 100 | 42.1 | > 100 | 8.38 | > 100 | > 100 |  | > 100 | > 100 | > 100 | 44.4 | 13.9 | 6.24 | > 100 | > 100 | 53.1 | 98.2 | > 100 | > 100 | > 100
15 | CC1=CC(=O)c2cccc(NC3=NCCO3)c21 | > 100 | > 100 | > 100 | > 100 | > 100 | > 100 | > 100 | > 100 | > 100 | > 100 | > 100 | 87.2 | > 100 | > 100 | > 100 | > 100 | > 100 | > 100 | 90.5 | > 100
16 | COC(=O)C1=C(OC(=O)/C(=C/c2ccc(Cl)cc2)c2ccccc2)C(C(=O)OC)[C@@]2(O)[C@@H](C(=O)OC)[C@H](C)C[C@@H]1[C@@H]2C(=O)OC (stereo not given in full) | > 100 | > 100 | > 100 | > 100 | > 100 | > 100 | > 100 | > 100 | > 100 | > 100 | > 100 | > 100 | > 100 | > 100 | > 100 | > 100 | > 100 | > 100 | > 100 | > 100
17 | Clc1ccc(OCC2NC3C=CC32)cn1 (stereo not given) | > 100 | > 100 | > 100 | > 100 | > 100 | > 100 | > 100 | > 100 | > 100 | > 100 | > 100 | > 100 | > 100 | > 100 | > 100 | > 100 | > 100 | > 100 | > 100 | > 100
18 | O=c1[nH]c(=O)n(C2CC(O)C(CO)O2)cc1NN=NCc1ccccc1 (stereo not given) |  | > 100 | > 100 | > 100 | > 100 | > 100 | > 100 | > 100 | > 100 | > 100 | > 100 | > 100 | > 100 | > 100 | > 100 |  | > 100 | > 100 | > 100 | > 100
19 | Cc1ccnc(NC(=S)Nc2ccccc2Cl)c1 | > 100 | > 100 | > 100 | > 100 | > 100 |  | > 100 | > 100 | > 100 | > 100 | 71.7 | > 100 | > 100 | 45.7 | > 100 | > 100 | > 100 | > 100 | > 100 | > 100
20 | Cc1cc2nc3n(c2cc1C)C(c1c(F)cccc1F)SC3 (stereo not given) | 50.9 | 40.2 | 60.3 | 44.1 | 32.3 | 38.2 | 54.2 | 38.5 | > 100 | 30.3 | > 100 | 23.8 | 38.8 | 41.4 | > 100 | 44.6 | 54.2 | 62.2 | > 10 | > 10
21 | C=CCC1NCCC2=C1C(S(=O)(=O)c1ccc(C)cc1)c1ccccc12 (stereo not given) | 29.4 | 26.6 | 19.6 | 26 | 24 | 36.4 | 27.1 | 26.2 | 26.1 | 23.1 | 18.9 | 35.9 | 17.6 | 25.5 | 22.2 | 4.29 | 35.1 | 25.7 | 22.6 | 20.5
22 | O=C(c1ccc(Cl)cc1)N1N=C(c2ccc(Cl)cc2)CC1(O)c1cc(F)c(Cl)cc1Cl (stereo not given) | > 100 | > 100 | 39.6 | > 100 | 37.3 | 73 | > 100 | > 100 | > 100 | 43.3 | 44.5 | > 100 | > 100 | > 100 | > 100 | 48.8 | > 100 | 51.5 | 21.7 | 22.2
23 | Cc1ccccc1NC(=S)N=Nc1c(O)[nH]c2ccccc12 | > 100 | 36.7 | > 100 | > 100 | > 100 | > 100 | > 100 | > 100 | > 100 | > 100 | > 100 | > 100 | > 100 | > 100 | > 100 | > 100 | > 100 | > 100 | > 100 | > 100
24 | Cc1ccc(O)c(Cc2nc3ccccc3nc2-c2cccc(Br)c2)c1 | > 100 |  | > 100 | > 100 | > 100 | > 100 | > 100 | > 100 | > 100 | > 100 | > 100 | > 100 | > 100 | > 100 | > 100 | > 100 | 66.8 | > 100 | > 100 | > 100
